In patent US8785630B2, “Insecticidal triazines and pyrimidines” (Vestaron Corporation, priority 2011, dated 2014):

system: beet armyworm (Spodoptera exigua); assay: Insecticidal test for beet armyworm, treated diet surface; type: in vivo; settings: 100 μg/cm^2 on diet surface, first instar larvae, 32 insects per treatment, observations 24, 48 and 96 hours
Experimental: The compounds identified in Table 8 were prepared according to the previous methods and were tested against beet armyworm and corn earworm as follows:
Insecticidal Test for Beet Armyworm (Spodoptera exigua).
To prepare the test solution, the test compound was Formulated at 3499 ppm in solution as 5 mg compound/1.429 mL of 9 parts acetone: 1 part deionized H2O and vortexed to homogenize. 50 μL of the 3499 ppm (equivalent to 100 μg/cm^2 dose on diet surface area) test solution was pipetted upon the surface of 1 mL of solidified cool Southland Products Incorporated Beet Armyworm Diet (201 Stuart Island Road Lake Village, Ark. 71653) using an Eppendorf Repeater Plus with a 1 mL pipette tip. All pipetting of treatments was done in a Labconco Hood. Thirty minutes were allowed for the acetone to evaporate leaving a dose of 100 μg/cm^2 on the surface of the artificial diet. Two 24 hour old first instar Beet Armyworm (Spodoptera Exigua) larvae were placed in each well of the 128 well Bio-BA 128 Bioassay trays (CD International, Pitman, N.J., 08071, USA) using a #0 fine camel hair paint brush. Bioassay trays were sectioned into treatment groups of 8 with 16 replicates per treatment group (32 insects per treatment). Trays containing the treated diet and larvae were covered with a Bio-CV-16 cover (CD International, Pitman, N.J., 08071, USA) and then placed on a rack under florescent lights at 27° C., 20% relative humidity (RH) in the room, and 16 hr light: 8 hr dark for 96 hours. Observations were made 24, 48 and 96 hours after treatment and infestation. The number of insects dead were counted out of the 32 insects total per treatment and the results are given in a table as a percent mortality at a dose of 100 μg/cm^2. When finished, the tray was moved to the −5° C. freezer and left for 24 hr to insure mortality of the remaining S. exigua. After 24 hours, dispose of entire tray into waste bin.
Keys to the table: Mortality refers to activity against beet army worm (Spodoptera exigua) as defined above at the concentration of 100 μg/cm^2 (A=76-100% mortality, B=51-75% mortality, C=26-50% mortality and D=0-25% mortality).

Q: How did the mortality at 100 µg/cm2 turn out when Fc1cccc(Cl)c1-c1cc(Nc2ccc(Cl)cc2)nc(NN=Cc2ccc(OC(F)(F)F)cc2)n1 [Example 52, 6-(2-chloro-6-fluorophenyl)-N-(4-chlorophenyl)-2-(2-(4-(trifluoromethoxy)benzylidene)hydrazinyl)pyrimidin-4-amine] was run?
A: Its mortality at 100 µg/cm2 is 76 to 100%.

Q: Cc1ccc(C=NNc2nc(Nc3ccc(Cl)nc3)nc(-c3c(F)cccc3Cl)n2)cc1 [Example 53, 4-(2-chloro-6-fluorophenyl)-N-(6-chloropyridin-3-yl)-6-(2-(4-methylbenzylidene)hydrazinyl)-1,3,5-triazin-2-amine] was tested. Which mortality at 100 µg/cm2 did it give?
A: Its mortality at 100 µg/cm2 is 76 to 100%.

Q: COc1ccc(C=NNc2nc(Nc3ccc(Cl)nc3)nc(-c3c(F)cccc3Cl)n2)cc1 [Example 54, 4-(2-chloro-6-fluorophenyl)-N-(6-chloropyridin-3-yl)-6-(2-(4-methoxybenzylidene)hydrazinyl)-1,3,5-triazin-2-amine] was tested. Which mortality at 100 µg/cm2 did it give?
A: Its mortality at 100 µg/cm2 is 76 to 100%.

Q: With Fc1cc(C=NNc2nc(Nc3ccc(Cl)nc3)nc(-c3c(F)cccc3Cl)n2)ccc1C(F)(F)F [Example 55, 4-(2-chloro-6-fluorophenyl)-N-(6-chloropyridin-3-yl)-6-(2-(3-fluoro-4-(trifluoromethyl)benzylidene)hydrazinyl)-1,3,5-triazin-2-amine] as the compound, how does the mortality at 100 µg/cm2 read?
A: Its mortality at 100 µg/cm2 is 76 to 100%.

Q: With FC(F)(F)Oc1ccc(C=NNc2nc(NCc3ccc(Cl)nc3)cc(-c3ccccc3)n2)cc1 [Example 56, N-((6-chloropyridin-3-yl)methyl)-6-phenyl-2-(2-(4-(trifluoromethoxy)benzylidene)hydrazinyl)pyrimidin-4-amine] as the compound, how does the mortality at 100 µg/cm2 read?
A: Its mortality at 100 µg/cm2 is 76 to 100%.

Q: For FC(F)(F)Oc1ccc(C=NNc2nc(Nc3ccc(Cl)cc3)cc(-c3ccccc3)n2)cc1 [Example 57, N-(4-chlorophenyl)-6-phenyl-2-(2-(4-(trifluoromethoxy)benzylidene)hydrazinyl)pyrimidin-4-amine], which mortality at 100 µg/cm2 is on record?
A: Its mortality at 100 µg/cm2 is 76 to 100%.

Q: How did the mortality at 100 µg/cm2 turn out when FC(F)(F)Oc1ccc(C=NNc2cc(-c3ccccc3)nc(Nc3ccc(Cl)cc3)n2)cc1 [Example 58, N-(4-chlorophenyl)-4-phenyl-6-(2-(4-(trifluoromethoxy)benzylidene)hydrazinyl)pyrimidin-2-amine] was run?
A: The mortality at 100 µg/cm2 was 76 to 100%.

Q: Which mortality at 100 µg/cm2 does the source give for Fc1cccc(Cl)c1-c1cc(Nc2ccc(Cl)nc2)nc(NN=Cc2ccc(OC(F)(F)F)cc2)n1 [Example 59, 6-(2-chloro-6-fluorophenyl)-N-(6-chloropyridin-3-yl)-2-(2-(4-(trifluoromethoxy)benzylidene)hydrazinyl)pyrimidin-4-amine] here?
A: The mortality at 100 µg/cm2 was 76 to 100%.

Q: Fc1cccc(Cl)c1-c1nc(NCc2ccc(Cl)cc2)nc(NN=Cc2ccc(OC(F)(F)F)cc2)n1 [Example 60, 4-(2-chloro-6-fluorophenyl)-N-(4-chlorobenzyl)-6-(2-(4-(trifluoromethoxy)benzylidene)hydrazinyl)-1,3,5-triazin-2-amine] was tested. Which mortality at 100 µg/cm2 did it give?
A: Its mortality at 100 µg/cm2 is 76 to 100%.

Q: With FC(F)(F)Oc1ccc(C=NNc2nc(NCc3ccc(Cl)cc3)cc(-c3ccccc3)n2)cc1 [Example 61, N-(4-chlorobenzyl)-6-phenyl-2-(2-(4-(trifluoromethoxy)benzylidene)hydrazinyl)pyrimidin-4-amine] as the compound, how does the mortality at 100 µg/cm2 read?
A: Its mortality at 100 µg/cm2 is 76 to 100%.
